In US20250134898A1, “USE OF MELANOCORTIN-4 RECEPTOR AGONIST IN PREVENTING OR TREATING RARE GENETIC OBESITY DISEASE” (LG CHEM, LTD., priority 2022, published 2025):

Tests used:
[1] = test system: Pomc heterozygous knock-out mice; test: Anti-obesity efficacy in high fat diet POMC heterozygous deficient mouse model; format: in vivo; details: 60 kcal % high-fat diet, 10 mg/kg or 30 mg/kg for about 3 weeks, FIG. 1
Method: Pomc heterozygous knock-out mice, in which the Pomc gene encoding proopiomelanocortin (POMC) is not normally expressed, were fed a 60 kcal % high-fat diet (diet with 60 kcal % fat), while administering N-((3S,5S)-1-((3S,4R)-1-(tert-butyl)-4-(4-chlorophenyl)pyrrolidine-3-carbonyl)-5-(morpholine-4-carbonyl)pyrrolidin-3-yl)-N-((1s,4R)-4-methylcyclohexyl)isobutyramide hydrochloride (hereinafter referred to as “test compound”) obtained from the example of preparation at a dose of 10 mg/kg or 30 mg/kg for about 3 weeks to determine the anti-obesity efficacy, and the results are shown in FIG. 1.

[2] = test system: Pomc homozygous knock-out mice; test: Anti-obesity efficacy in high fat diet POMC homozygous deficient mouse model; format: in vivo; details: 45 kcal % high-fat diet, 10 mg/kg or 30 mg/kg for about 10 days, FIG. 2
Method: Pomc homozygous knock-out mice, in which the Pomc gene encoding proopiomelanocortin (POMC) is not expressed, were administered with the test compound at a dose of 10 mg/kg or 30 mg/kg for about 10 days while fed a 45 kcal % high-fat diet (diet with 45 kcal % fat) to determine the anti-obesity efficacy, and the results are shown in FIG. 2.

For `CC(C)C(=O)N([C@H]1C[C@@H](C(=O)N2CCOCC2)N(C(=O)[C@@H]2CN(C(C)(C)C)C[C@H]2c2ccc(Cl)cc2)C1)[C@H]1CC[C@@H](C)CC1.Cl` [test compound, N-((3S,5S)-1-((3S,4R)-1-(tert-butyl)-4-(4-chlorophenyl)pyrrolidine-3-carbonyl)-5-(morpholine-4-carbonyl)pyrrolidin-3-yl)-N-((1s,4R)-4-methylcyclohexyl)isobutyramide hydrochloride], the anti-obesity efficacy [1] was “excellent anti-obesity effects” and the anti-obesity efficacy [2] was “excellent anti-obesity effects”.
